According to ChEMBL document CHEMBL3745672, “Novel compounds reducing IRS-1 serine phosphorylation for treatment of diabetes” (Bioorg Med Chem Lett, 2016):

Assays:
[1] = target: Serine/threonine-protein kinase PAK 1 (Homo sapiens) (UniProt Q13153); assay: Inhibition of PAK1 (unknown origin) at 1 uM
[2] = target: Receptor-type tyrosine-protein kinase FLT3 (Homo sapiens) (UniProt P36888); assay: Inhibition of FLT3 (unknown origin) at 1 uM
[3] = target: Cyclin-dependent kinase 4/cyclin D1 (Homo sapiens) (UniProt P11802+P24385); assay: Inhibition of CDK4/cyclin D1 (unknown origin) at 1 uM; assay type: protein-complex assay
[4] = target: Tyrosine-protein kinase SYK (Homo sapiens) (UniProt P43405); assay: Inhibition of SYK (unknown origin) at 1 uM
[5] = target: Angiopoietin-1 receptor (Homo sapiens) (UniProt Q02763); assay: Inhibition of TIE2 (unknown origin) at 1 uM
[6] = target: T1, Inhibitor of nuclear factor kappa-B kinase subunit beta (Homo sapiens) (UniProt O14920); assay: Inhibition of IKKbeta (unknown origin) at 1 uM
T1 sequence (whole entry): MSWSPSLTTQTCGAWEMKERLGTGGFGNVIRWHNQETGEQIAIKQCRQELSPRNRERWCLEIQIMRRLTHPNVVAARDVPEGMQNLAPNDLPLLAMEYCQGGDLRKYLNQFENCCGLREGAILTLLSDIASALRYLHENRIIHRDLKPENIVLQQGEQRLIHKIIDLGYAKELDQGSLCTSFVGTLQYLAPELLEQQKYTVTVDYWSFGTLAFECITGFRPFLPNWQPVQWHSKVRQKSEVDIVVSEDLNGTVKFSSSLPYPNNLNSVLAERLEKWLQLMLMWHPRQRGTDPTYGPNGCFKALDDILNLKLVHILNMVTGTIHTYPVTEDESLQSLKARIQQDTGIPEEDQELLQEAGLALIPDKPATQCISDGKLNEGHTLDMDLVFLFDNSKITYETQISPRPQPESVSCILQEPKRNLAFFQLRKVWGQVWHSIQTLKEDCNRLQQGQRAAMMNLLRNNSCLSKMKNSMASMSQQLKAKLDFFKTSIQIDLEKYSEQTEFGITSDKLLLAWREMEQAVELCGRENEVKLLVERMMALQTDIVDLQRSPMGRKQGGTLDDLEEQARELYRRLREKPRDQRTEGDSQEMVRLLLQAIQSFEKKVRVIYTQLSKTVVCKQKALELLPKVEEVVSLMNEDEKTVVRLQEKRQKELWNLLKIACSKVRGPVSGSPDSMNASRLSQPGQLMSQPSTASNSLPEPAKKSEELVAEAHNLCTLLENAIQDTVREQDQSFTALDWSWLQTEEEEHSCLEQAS

[7] = target: T2, Tyrosine-protein kinase JAK3 (Homo sapiens) (UniProt P52333); assay: Inhibition of JAK3 (unknown origin) at 1 uM
T2 sequence (whole entry): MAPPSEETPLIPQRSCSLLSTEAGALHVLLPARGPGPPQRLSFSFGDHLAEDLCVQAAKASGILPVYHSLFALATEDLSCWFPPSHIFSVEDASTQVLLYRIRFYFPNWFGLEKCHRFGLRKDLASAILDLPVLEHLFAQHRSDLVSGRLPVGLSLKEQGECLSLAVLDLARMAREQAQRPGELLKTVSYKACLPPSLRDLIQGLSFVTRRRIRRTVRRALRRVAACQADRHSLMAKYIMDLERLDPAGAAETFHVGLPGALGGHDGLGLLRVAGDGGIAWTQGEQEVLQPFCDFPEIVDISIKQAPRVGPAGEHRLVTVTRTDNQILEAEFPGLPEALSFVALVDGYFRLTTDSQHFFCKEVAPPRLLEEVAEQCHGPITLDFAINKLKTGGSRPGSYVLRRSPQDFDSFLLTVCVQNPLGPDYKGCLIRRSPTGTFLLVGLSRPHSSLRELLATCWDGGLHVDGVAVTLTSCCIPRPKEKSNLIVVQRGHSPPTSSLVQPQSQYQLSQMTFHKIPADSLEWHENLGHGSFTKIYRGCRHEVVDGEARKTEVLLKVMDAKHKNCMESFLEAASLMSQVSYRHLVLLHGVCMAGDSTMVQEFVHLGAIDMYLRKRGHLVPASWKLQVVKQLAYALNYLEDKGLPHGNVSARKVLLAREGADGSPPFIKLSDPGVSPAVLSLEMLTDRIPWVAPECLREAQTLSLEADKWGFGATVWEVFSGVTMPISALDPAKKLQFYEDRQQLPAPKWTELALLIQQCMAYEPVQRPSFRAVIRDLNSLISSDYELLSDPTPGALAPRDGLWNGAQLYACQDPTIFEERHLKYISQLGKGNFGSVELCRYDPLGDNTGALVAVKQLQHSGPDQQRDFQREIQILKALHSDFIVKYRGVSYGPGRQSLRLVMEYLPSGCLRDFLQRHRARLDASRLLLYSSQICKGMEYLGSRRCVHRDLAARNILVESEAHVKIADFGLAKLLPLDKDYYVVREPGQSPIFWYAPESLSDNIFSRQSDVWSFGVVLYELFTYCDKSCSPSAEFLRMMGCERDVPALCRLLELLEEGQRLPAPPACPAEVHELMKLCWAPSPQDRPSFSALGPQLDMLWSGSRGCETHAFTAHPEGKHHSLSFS

[8] = target: T3, Serine/threonine-protein kinase Chk1 (Homo sapiens) (UniProt O14757); assay: Inhibition of CHK1 (unknown origin) at 1 uM
T3 sequence (whole entry): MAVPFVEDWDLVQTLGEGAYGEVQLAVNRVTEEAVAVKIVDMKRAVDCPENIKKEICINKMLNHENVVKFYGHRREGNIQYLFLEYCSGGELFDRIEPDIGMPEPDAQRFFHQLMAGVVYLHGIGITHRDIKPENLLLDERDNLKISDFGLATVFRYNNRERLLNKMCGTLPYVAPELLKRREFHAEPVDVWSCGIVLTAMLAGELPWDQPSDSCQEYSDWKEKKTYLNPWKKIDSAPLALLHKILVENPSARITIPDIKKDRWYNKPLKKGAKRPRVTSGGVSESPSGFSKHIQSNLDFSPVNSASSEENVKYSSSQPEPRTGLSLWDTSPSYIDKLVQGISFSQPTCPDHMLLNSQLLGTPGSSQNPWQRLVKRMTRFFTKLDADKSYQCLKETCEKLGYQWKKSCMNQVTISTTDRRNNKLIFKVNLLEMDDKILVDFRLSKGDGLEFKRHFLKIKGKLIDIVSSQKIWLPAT

Chain of Angiopoietin-1 receptor (Homo sapiens) (Q02763 whole entry): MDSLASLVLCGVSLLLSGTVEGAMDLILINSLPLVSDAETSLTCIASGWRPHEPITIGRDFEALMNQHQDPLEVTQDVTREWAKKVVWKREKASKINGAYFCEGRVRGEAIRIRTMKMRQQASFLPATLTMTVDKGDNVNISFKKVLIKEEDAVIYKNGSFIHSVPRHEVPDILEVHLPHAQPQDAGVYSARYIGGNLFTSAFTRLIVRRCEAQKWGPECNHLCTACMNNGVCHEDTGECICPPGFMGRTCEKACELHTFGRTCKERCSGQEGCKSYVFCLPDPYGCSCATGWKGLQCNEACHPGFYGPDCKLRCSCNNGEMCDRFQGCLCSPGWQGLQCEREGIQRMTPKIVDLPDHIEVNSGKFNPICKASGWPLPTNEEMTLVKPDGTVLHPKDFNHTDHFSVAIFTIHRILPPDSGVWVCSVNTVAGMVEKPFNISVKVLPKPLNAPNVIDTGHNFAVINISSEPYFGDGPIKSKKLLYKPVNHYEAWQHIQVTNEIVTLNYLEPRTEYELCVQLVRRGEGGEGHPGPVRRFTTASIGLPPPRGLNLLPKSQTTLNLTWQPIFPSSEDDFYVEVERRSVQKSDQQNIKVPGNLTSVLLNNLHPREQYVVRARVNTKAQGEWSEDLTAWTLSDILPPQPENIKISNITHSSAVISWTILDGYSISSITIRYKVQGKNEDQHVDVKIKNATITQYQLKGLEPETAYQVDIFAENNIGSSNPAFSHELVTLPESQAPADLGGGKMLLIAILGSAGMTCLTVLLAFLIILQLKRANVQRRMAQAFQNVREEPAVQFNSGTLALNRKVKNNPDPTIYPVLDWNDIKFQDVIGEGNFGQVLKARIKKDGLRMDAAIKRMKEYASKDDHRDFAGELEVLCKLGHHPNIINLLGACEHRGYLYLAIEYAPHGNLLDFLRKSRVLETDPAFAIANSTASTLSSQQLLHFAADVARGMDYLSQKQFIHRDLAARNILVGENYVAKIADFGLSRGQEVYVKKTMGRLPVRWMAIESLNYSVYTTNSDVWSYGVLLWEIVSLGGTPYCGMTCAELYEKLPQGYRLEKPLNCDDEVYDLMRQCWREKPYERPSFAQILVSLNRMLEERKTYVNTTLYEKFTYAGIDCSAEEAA
Chain of Receptor-type tyrosine-protein kinase FLT3 (Homo sapiens) (P36888 whole entry): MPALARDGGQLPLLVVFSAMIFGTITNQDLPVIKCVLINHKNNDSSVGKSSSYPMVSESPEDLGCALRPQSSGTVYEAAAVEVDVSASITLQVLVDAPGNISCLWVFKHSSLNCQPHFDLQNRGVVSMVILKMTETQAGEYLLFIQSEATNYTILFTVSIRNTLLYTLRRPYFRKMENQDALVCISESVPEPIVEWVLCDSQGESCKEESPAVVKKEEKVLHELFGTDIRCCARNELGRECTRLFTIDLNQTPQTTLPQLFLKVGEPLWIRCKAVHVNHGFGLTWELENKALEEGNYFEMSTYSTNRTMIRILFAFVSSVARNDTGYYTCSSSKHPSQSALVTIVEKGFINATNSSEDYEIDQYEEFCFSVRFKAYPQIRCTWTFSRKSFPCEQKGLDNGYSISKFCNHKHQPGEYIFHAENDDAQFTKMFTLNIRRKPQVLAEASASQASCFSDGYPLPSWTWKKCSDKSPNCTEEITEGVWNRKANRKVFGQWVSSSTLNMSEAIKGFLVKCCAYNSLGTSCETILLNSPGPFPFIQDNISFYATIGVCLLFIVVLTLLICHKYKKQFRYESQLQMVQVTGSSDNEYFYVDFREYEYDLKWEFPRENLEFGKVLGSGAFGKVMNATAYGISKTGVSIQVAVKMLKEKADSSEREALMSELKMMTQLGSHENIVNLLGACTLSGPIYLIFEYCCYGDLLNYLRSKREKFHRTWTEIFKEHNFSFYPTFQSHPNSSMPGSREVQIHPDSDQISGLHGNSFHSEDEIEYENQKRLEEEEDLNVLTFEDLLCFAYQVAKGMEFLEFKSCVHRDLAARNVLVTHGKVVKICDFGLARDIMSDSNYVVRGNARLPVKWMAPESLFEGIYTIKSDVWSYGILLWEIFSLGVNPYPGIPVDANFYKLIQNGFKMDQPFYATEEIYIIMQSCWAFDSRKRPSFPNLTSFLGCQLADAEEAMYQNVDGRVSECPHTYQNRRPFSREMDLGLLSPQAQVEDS
Chain of Serine/threonine-protein kinase PAK 1 (Homo sapiens) (Q13153 whole entry): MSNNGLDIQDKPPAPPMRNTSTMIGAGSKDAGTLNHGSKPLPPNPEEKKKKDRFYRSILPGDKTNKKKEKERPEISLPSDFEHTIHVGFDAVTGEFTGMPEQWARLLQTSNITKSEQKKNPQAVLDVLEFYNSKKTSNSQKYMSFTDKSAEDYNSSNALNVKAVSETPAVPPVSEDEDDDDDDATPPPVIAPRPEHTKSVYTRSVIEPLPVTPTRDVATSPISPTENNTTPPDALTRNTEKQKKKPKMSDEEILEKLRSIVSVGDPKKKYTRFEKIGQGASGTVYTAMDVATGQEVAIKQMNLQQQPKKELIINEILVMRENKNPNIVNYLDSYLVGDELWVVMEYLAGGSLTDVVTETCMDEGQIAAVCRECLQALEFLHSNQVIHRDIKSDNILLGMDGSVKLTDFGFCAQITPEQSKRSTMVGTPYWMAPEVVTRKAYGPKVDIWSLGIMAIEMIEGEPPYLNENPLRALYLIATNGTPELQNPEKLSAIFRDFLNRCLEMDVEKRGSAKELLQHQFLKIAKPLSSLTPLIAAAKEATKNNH

Cn1c(=O)c(Oc2ccc(F)cc2F)cc2cnc(NC3CCN(S(N)(=O)=O)CC3)nc21
inhibition [1]: 16%
inhibition [2]: 8%
inhibition [3]: 27%
inhibition [4]: 14%
inhibition [5]: 10%
inhibition [6]: 13%
inhibition [7]: 10%
inhibition [8]: 9%
